# Test results: US5153180A, “Fluorinated nucleosides and process for treating retrovirus infections therewith” (priority 1990, dated 1992)
# Tests used:
# [1] = molecular target: T1, HIV-associated reverse transcriptase (HIV-RT) (Human immunodeficiency virus type 1 group M subtype B, UniProt P04585); test: Inhibition of HIV-associated reverse transcriptase (polymerization of artificial templates); assay type: biochemical
# T1 construct: HIV-associated reverse transcriptase (HIV-RT)
# From the text: At first the triphosphates of some compounds according to formula I were investigated for their ability to inhibit the polymerization of artificial templates (such as polyAoligodT and polyColigodG) catalyzed by HIV-associated reverse transcriptase (HIV-RT) according to the method described by A. D. Hoffman et al., Virology 147, 326, 1985. […] FdTTP, FdUTP and FdGTP are among the strongest inhibitors found so far for HIV-RT. In comparison the ID50 for 3'-azidothymidinetriphosphate was estimated under our conditions to be about […].
# [2] = molecular target: T2, cellular DNA polymerase α (Bos taurus, UniProt A0AAA9TD94); test: Effect on cellular DNA polymerase α; assay type: biochemical; settings: enzyme purified from calf thymus; read-out: ID50 cellular polymerase α
# T2 construct: purified from calf thymus; from tissue; host or cells: calf thymus
# T2 sequence (A0AAA9TD94 1-1441): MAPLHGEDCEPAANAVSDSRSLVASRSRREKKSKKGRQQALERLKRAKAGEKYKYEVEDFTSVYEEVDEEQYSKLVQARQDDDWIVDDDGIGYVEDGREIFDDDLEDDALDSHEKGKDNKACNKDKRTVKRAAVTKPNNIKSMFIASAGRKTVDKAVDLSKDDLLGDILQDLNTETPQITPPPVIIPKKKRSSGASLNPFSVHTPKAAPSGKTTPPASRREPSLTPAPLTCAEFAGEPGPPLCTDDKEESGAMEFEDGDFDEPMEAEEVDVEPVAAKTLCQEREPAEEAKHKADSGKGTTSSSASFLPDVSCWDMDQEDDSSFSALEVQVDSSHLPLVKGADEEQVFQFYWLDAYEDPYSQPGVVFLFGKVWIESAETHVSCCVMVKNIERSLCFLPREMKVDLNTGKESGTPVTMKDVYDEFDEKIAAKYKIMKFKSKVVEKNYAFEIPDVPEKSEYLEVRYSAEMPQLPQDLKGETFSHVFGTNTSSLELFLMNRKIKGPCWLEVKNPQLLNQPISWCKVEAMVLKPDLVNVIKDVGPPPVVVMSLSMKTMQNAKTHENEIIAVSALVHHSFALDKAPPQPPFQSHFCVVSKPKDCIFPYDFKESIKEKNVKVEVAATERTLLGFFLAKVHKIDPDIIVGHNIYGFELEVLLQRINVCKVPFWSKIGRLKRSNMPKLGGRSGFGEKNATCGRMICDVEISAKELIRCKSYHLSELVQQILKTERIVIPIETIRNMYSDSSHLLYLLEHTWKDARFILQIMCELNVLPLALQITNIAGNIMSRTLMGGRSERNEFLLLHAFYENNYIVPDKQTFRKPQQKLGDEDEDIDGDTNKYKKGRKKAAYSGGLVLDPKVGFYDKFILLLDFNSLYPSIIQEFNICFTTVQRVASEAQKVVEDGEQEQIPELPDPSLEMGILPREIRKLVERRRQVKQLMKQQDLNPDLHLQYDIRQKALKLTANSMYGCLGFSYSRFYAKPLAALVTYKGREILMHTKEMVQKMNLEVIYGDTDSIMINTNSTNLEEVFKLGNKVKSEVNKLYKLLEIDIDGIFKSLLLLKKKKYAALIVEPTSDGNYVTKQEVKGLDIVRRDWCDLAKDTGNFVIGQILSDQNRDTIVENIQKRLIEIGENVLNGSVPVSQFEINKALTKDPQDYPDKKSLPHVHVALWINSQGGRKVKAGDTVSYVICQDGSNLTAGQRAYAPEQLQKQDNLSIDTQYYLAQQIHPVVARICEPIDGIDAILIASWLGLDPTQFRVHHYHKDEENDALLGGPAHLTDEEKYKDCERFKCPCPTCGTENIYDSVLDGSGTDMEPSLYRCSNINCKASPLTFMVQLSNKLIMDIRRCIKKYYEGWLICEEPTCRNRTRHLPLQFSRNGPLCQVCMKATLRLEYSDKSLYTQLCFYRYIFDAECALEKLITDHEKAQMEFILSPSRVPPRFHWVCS
# From the text: (§1) The strong inhibiting effect of 3'-fluoro-substituted deoxynucleotides against HIV-reverse transcriptase can be utilized therapeutically only if the cellular DNA polymerases, especially the DNA polymerase α which is required for the replication of the cellular DNA, remain substantially unaffected. […] The ID50 values for the DNA polymerase β responsible for cellular DNA repair vary between 1,8-15 μm. Both enzymes cellular DNA polymerase α and β were purified from calf thymus and tested according to the method of E. Matthes et al., Biomed. Biochim. Acta 44. K63 (1985).
# [3] = molecular target: T3, cellular DNA polymerase β (Bos taurus, UniProt Q27958); test: Effect on cellular DNA polymerase β; assay type: biochemical; settings: enzyme purified from calf thymus; read-out: ID50 cellular polymerase β
# T3 construct: purified from calf thymus; from tissue; host or cells: calf thymus
# From the text: as §1
# [4] = molecular target: RLV-associated reverse transcriptase; test: Inhibition of RLV-associated reverse transcriptase; assay type: biochemical, Rauscher murine leukemia virus
# HIV = test: Inhibition of the cytopathic effect of HIV on MT-4 cells; assay type: cell-based; settings: Human immunodeficiency virus 1, MT4, 144 h; MT-4 cells, 6 days of incubation; read-out: 50% antiviral dose (ED50)
# Protocol: (§2) Under in vitro conditions immortalized T-lymphocytes can be killed within few days by the cytopathic effect of HIV. […] For this purpose about 20,000 MT-4 cells (Harada et al. Science 229, 563 (1985)) Were infected with HIV (titer: 0.04 m.o.i.) and incubated in the presence or absence of varying concentrations of compounds according to formula I, with 10% fetal calf serum (FCS) in 200 μl RPMI medium. After 6 days of incubation the viable cells were counted that were excluded from trypan blue staining.
# in vitro = settings: human, mt-4 cells
# Protocol: as §2
# [5] = test system: K-562 acute myeloic leukemia; test: Inhibition of proliferation of K-562 cells; assay type: cell-based; settings: Homo sapiens, K562; dose required to reduce the cell number by 50%, K-562; read-out: CD50 (the source's name)
# From the text: (§3) Originally FTdR was developed as a cytostatic agent (P. Langen et al., Acta biol. med. Germ. 23, 759, 1969; and U.S. Pat. No. 3,775,397) and, therefore, its cytostatic efficacy has been examined in extensive prior studies. […] Ehrlich-mouse-ascites-carcinoma cells (EMAC) represents an exception to that finding, and this is probably connected to its high capability of phosphorylation of FTdR, which is 10 times higher than in human cells. The fast reversibility of the cytostatic effects on EMAC cells was regarded as a special property of this compound (P. Langen et al., Europ. J. Cancer. 14. 349, 1978). The antiproliferative effect of FTdR and FddUrd, and in comparison thereto of N3 -TdR were tested on human cell lines with regard to a possible use in humans. […] When FTdR is compared to N3 -TdR. The effects are very similar, however somewhat lower in each case for N3 -TdR than for FTdR.
# (§4) CD50 : inhibitory dose required to reduce the cell number by 50%
# [6] = test system: REH acute lymphatic leukemia; test: Inhibition of proliferation of REH cells; assay type: cell-based; settings: Homo sapiens, dose required to reduce the cell number by 50%, read-out: CD50 (the source's name)
# From the text: as §3, §4
# [7] = test system: K-37 immortalized T-cells; test: Inhibition of proliferation of K-37 cells; assay type: cell-based; settings: Homo sapiens, T-cell; dose required to reduce the cell number by 50%, K-37; read-out: CD50 (the source's name)
# From the text: as §3, §4
# H9 immortalized T-cells = test: Inhibition of proliferation of H9 cells; assay type: cell-based; settings: Homo sapiens, T-cell; dose required to reduce the cell number by 50%, H9; read-out: CD50 (the source's name)
# From the text: as §3, §4
Compound,mode of action (type of inhibition) [1],IC50 ([1]; read-out: ID50 HIV-associated reverse transcriptase) [µM],IC50 [2] [µM],IC50 [3] [µM],ID50 RLV-associated reverse transcriptase [4] [µM],RLV-associated RT less sensitive to the inhibitor than HIV-associated RT ([4]; ratio of ID50 values) [times],EC50 (HIV) [µM],CC50 at 144 h (in vitro) [µM],IC50 [5] [µM],IC50 [6] [µM],IC50 [7] [µM],IC50 (H9 immortalized T-cells) [µM]
"Cc1cn([C@H]2C[C@H](F)[C@@H](COP(=O)(O)OP(=O)(O)OP(=O)(O)O)O2)c(=O)[nH]c1=O [FdTTP, 2'-3'-dideoxy-3'-fluorothymidine-5'-triphosphate]",competitive type of inhibition,0.05,> 200,2.2,0.5,10,–,–,–,–,–,–
"O=c1ccn([C@H]2C[C@H](F)[C@@H](CO)O2)c(=O)[nH]1 [FddUrd, 2'-3'-dideoxy-3'-fluorouridine]",–,–,–,–,–,–,0.275,75,> 1000,> 9000,> 1000,> 2500
